# Values quoted from earlier work, collected in US20140303128A1, “TRANSMUCOSAL HORMONE DELIVERY SYSTEM” (priority 2013, published 2014).
# How the values were obtained:
# [1] = smoking a cigarette (WO 03/055486 A1)
# [2] = pH 6.8
compound,measurement,setting,value
CN1CCCC1c1cccnc1 (centres unmarked) [nicotine],time to peak of plasma nicotine levels,[1],about 10 minutes
same,nicotine in the free base form,[2],about 10%
